# Results: patent US6858589B2, “Methods of and compositions for potentiating the action of agents active on cell wall sites of the susceptible bacteria” (priority 1996, dated 2005)
# Read-outs that look alike come from different tables or passages of the source.
# What was measured:
# [1] = system: blood culture isolate of cMRSA; assay: MIC and MBC for the cMRSA isolate; format: cell-based, Staphylococcus aureus; details: mecA positive
# Procedure: The student test was used for statistical analysis with a significant level of 0.05, it was performed using the Sigma Stat 32 program (SPSS Inc 1992-1997).
# [2] = system: blood culture isolate of cMRSA; assay: Kill kinetics and regrowth patterns of cMRSA exposed to gentamicin profiles and constant beta-lactam; format: cell-based, Staphylococcus aureus; details: for Outcome of exposure: each agent alone
# Procedure: FIGS. 5a and 5b Kill kinetics and regrowth patterns of a clinical isolate of cMRSA.
# The CMRSA isolate was cultured in the presence of gentamicin (Delta West, Bentleigh, Australia). An overnight culture of cMRSA in brain heart infusion broth (BHIB) (Oxoid, Bainstoke, England) was diluted to 10^7 CFU/ml in 0.1% peptone water (Oxoid, Bainstoke, England). A 1 ml sample of the 10^7 CFU/ml culture was added to the experimental culture broth, resulting in an initial density of 10^6 CFU/ml. In vitro concentration-time modeling of clinical plasma gentamicin concentration-time profiles assumed linear extrapolation of in vivo data as reported previously.^18 (Bastone et al Antimicrobial Agents and Chemotherapy 37(4): 914-917, 1993). […] Other profiles were constructed by linear extrapolation of these profiles and included 7 and 16 mg/l bolus and infusion profiles. Colony counts were performed at times 0, 0.5, 2.5, 4.5, 6.5, 8.5, 10.5, 24.5 and 48.5 hours for bolus profiles and times 0, 1, 3, 5, 7, 9, 11, 25 and 49 hours for infusion profiles.
# In the experiments involving cephazolin the concentration was maintained at 4 mg/l in the BHIB for the entire 48.5 hours. For the experiments involving flucloxacillin the concentration of flucloxacillin was maintained at 2 mg/l for 48.5 hours. Colony counts were performed at times 0, 0,5, 2.5, 4.5, 6.5, 8.5, 10.5, 24.5 and 48.5 hours. […] These included cMRSA in a drug free broth, cMRSA exposed to a bolus profile of gentamicin with a target Cpeak 30 of 6 mg/l only, cMRSA exposed to […] of flucloxacillin only.
# All experiments involved six replicates. Gentamicin concentrations were measured at times 0, 0.16, 0.33, 0.5, 2.5, 4.5, 6.5, 8.5, 10.5, 24.5 and 48.5 hours. Gentamicin assay concentrations were determined by fluorescence polarisation immunoassay (AxSYM, Abbot, Ill., U.S.A.) which has a threshold for detection of 0.3 mg/liter. […] (Gibaldi et al, pharmaceutics 2nd edn, 1982).
# The blood culture cMRSA isolate was exposed to gentamicin in vitro simulating an in vivo bolus dosing regimen with varying 30 minute post dose concentrations of gentamicin. The same organism was then exposed to gentamicin in vitro simulating an in vivo bolus dosing regime with a 30 minute post dose concentration of 6 mg/l and constant concentration of 4 mg/l of cephazolin or 2 mg/l of flucloxacillin for 48 hours.
# E. coli NCTC 10418 = assay: E. coli exposed to constant concentrations of cephazolin alone; format: cell-based, Escherichia coli
# From the text: In comparative experiments described in the examples herein, a reference strain of Escherichi coli (E. coli NCTC 10418) was exposed to constant concentrations of cephazolin in the culture medium (see FIGS. 1A and IIA). As these concentrations were varied, the growth of the bacterial culture was changed. […] As concentrations in the medium were increased, there was a major decline in numbers and a delay in regrowth.
# The organisms in the media were able to maintain their numbers in a reduced state even in the continuing presence of cephazolin. This outcome is due to the exclusion of cephalosporins by porin channels in the outer cell wall and to the action of cephalosporinase which keeps cephazolin levels at the site(s) of action below that required for full bactericidal effect.
# The cephalosporin effect reached a maximum when E. coli growth was reduced to 10 colony forming units(cfu)/ml (see FIG. IIB).
# [3] = system: Pseudomonas aeruoginosa, ATCC27853; assay: MIC, Pseudomonas reference strain; format: cell-based, Pseudomonas aeruginosa
# [4] = system: antibiotic resistant strain of Pseudomonas aeruoginosa isolated from a clinical patient; assay: MIC, antibiotic resistant clinical Pseudomonas strain; format: cell-based, Pseudomonas aeruginosa
# [5] = system: antibiotic resistant strain of Pseudomonas aeruoginosa isolated from a clinical patient; assay: Tobramycin concentration-time profile kill study, resistant clinical strain; format: cell-based, Pseudomonas aeruginosa
# Procedure: The time boundaries for maintained exposures with aminoglycoside may be 1.0-16 hours, while the required maintained concentrations will be a function of the resistance of the organism as determined by the minimum inhibitory concentration (MIC) of the pathogen isolated in culture and time-concentration requirements of the organism(s) being treated.
# (§1) The range of aminoglycoside antibiotics was extended to include tobramycin, the bacterial species type was extended from Enterobacteriaceae to Pseudomonacea, and the organism response range broadened to include an antibiotic resistant strain in Pseudomonas studies.
# (§2) In contrast, the resistant clinical strain required a peak concentration of 18 mg/l combined with a maintained level of 1 mg/l.
# [6] = system: Pseudomonas aeruoginosa, ATCC27853; assay: Tobramycin concentration-time profile kill study, reference strain; format: cell-based, Pseudomonas aeruginosa; details: 8 mg/l at 1 hour, reducing until 8.5 hr, then fixed 0.8 mg/l for 16 hours
# Procedure: as §1, §2
# [7] = 4 mg/l cephazolin alone throughout
smiles,measurement,setting,value
Cc1nnc(SCC2=C(C(=O)O)N3C(=O)[C@@H](NC(=O)Cn4cnnn4)[C@H]3SC2)s1 [cephazolin],MBC,[1],32 µg/mL
same,MIC,[1],32 µg/mL
same,Time at which early bactericidal effect was evident,[2]; [7],≤ 2.5 h
same,Time at which regrowth was evident,[2]; [7],24.5 h
same,Outcome of exposure,[2],complete kill or eradication was not achieved
same,Outcome of exposure,"E. coli NCTC 10418; cephalosporin alone, constant concentrations",not possible to produce a complete kill or eradication
same,E. coli growth at maximum cephalosporin effect,"E. coli NCTC 10418; constant concentrations of cephalosporin alone, up to 250 mg/l",10 cfu/ml
same,Growth of the culture,"E. coli NCTC 10418; lowest concentration of cephazolin, 1.0 mg/l",delayed in relation to control
same,Bacterial Count,"E. coli NCTC 10418; maintained cephazolin 0.5 mg/L, 0 h",5.88 ± 0.09 log 10 u/mL
same,Bacterial Count,"E. coli NCTC 10418; maintained cephazolin 0.5 mg/L, 2 h",7.43 ± 0.28 log 10 u/mL
same,Bacterial Count,"E. coli NCTC 10418; maintained cephazolin 0.5 mg/L, 8 h",8.67 ± 0.24 log 10 u/mL
same,Bacterial Count,"E. coli NCTC 10418; maintained cephazolin 0.5 mg/L, 24 h",8.82 ± 0.06 log 10 u/mL
same,Bacterial Count,"E. coli NCTC 10418; maintained cephazolin 1.0 mg/L, 0 h",5.83 ± 0.29 log 10 u/mL
same,Bacterial Count,"E. coli NCTC 10418; maintained cephazolin 1.0 mg/L, 2 h",6.21 ± 0.76 log 10 u/mL
same,Bacterial Count,"E. coli NCTC 10418; maintained cephazolin 1.0 mg/L, 8 h",8.59 ± 0.35 log 10 u/mL
same,Bacterial Count,"E. coli NCTC 10418; maintained cephazolin 1.0 mg/L, 24 h",8.79 ± 0.05 log 10 u/mL
same,Bacterial Count,"E. coli NCTC 10418; maintained cephazolin 2.0 mg/L, 0 h",5.88 ± 0.07 log 10 u/mL
same,Bacterial Count,"E. coli NCTC 10418; maintained cephazolin 2.0 mg/L, 2 h",3.70 ± 0.32 log 10 u/mL
same,Bacterial Count,"E. coli NCTC 10418; maintained cephazolin 2.0 mg/L, 8 h",4.98 ± 0.34 log 10 u/mL
same,Bacterial Count,"E. coli NCTC 10418; maintained cephazolin 2.0 mg/L, 24 h",8.79 ± 0.05 log 10 u/mL
same,Bacterial Count,"E. coli NCTC 10418; maintained cephazolin 4.0 mg/L, 0 h",5.88 ± 0.06 log 10 u/mL
same,Bacterial Count,"E. coli NCTC 10418; maintained cephazolin 4.0 mg/L, 2 h",3.61 ± 0.22 log 10 u/mL
same,Bacterial Count,"E. coli NCTC 10418; maintained cephazolin 4.0 mg/L, 8 h",4.38 ± 0.42 log 10 u/mL
same,Bacterial Count,"E. coli NCTC 10418; maintained cephazolin 4.0 mg/L, 24 h",6.14 ± 0.93 log 10 u/mL
same,Bacterial Count,"E. coli NCTC 10418; maintained cephazolin 12.5 mg/L, 0 h",5.85 ± 0.14 log 10 u/mL
same,Bacterial Count,"E. coli NCTC 10418; maintained cephazolin 12.5 mg/L, 2 h",3.11 ± 0.26 log 10 u/mL
same,Bacterial Count,"E. coli NCTC 10418; maintained cephazolin 12.5 mg/L, 8 h",2.18 ± 0.63 log 10 u/mL
same,Bacterial Count,"E. coli NCTC 10418; maintained cephazolin 12.5 mg/L, 24 h",4.77 ± 1.89 log 10 u/mL
same,Bacterial Count,"E. coli NCTC 10418; maintained cephazolin 50 mg/L, 0 h",5.93 ± 0.11 log 10 u/mL
same,Bacterial Count,"E. coli NCTC 10418; maintained cephazolin 50 mg/L, 2 h",2.17 ± 0.39 log 10 u/mL
same,Bacterial Count,"E. coli NCTC 10418; maintained cephazolin 50 mg/L, 8 h",1.55 ± 0.93 log 10 u/mL
same,Bacterial Count,"E. coli NCTC 10418; maintained cephazolin 50 mg/L, 24 h",1.56 ± 1.14 log 10 u/mL
same,Bacterial Count,"E. coli NCTC 10418; maintained cephazolin 75 mg/L, 0 h",5.82 ± 0.23 log 10 u/mL
same,Bacterial Count,"E. coli NCTC 10418; maintained cephazolin 75 mg/L, 2 h",2.09 ± 0.29 log 10 u/mL
same,Bacterial Count,"E. coli NCTC 10418; maintained cephazolin 75 mg/L, 8 h",1.11 ± 0.96 log 10 u/mL
same,Bacterial Count,"E. coli NCTC 10418; maintained cephazolin 75 mg/L, 24 h",1.05 ± 1.23 log 10 u/mL
same,Bacterial Count,"E. coli NCTC 10418; maintained cephazolin 100 mg/L, 0 h",5.85 ± 0.08 log 10 u/mL
same,Bacterial Count,"E. coli NCTC 10418; maintained cephazolin 100 mg/L, 2 h",2.01 ± 0.26 log 10 u/mL
same,Bacterial Count,"E. coli NCTC 10418; maintained cephazolin 100 mg/L, 8 h",0.86 ± 0.95 log 10 u/mL
same,Bacterial Count,"E. coli NCTC 10418; maintained cephazolin 100 mg/L, 24 h",0.70 ± 0.78 log 10 u/mL
same,Bacterial Count,"E. coli NCTC 10418; maintained cephazolin 200 mg/L, 0 h",5.86 ± 0.04 log 10 u/mL
same,Bacterial Count,"E. coli NCTC 10418; maintained cephazolin 200 mg/L, 2 h",2.16 ± 0.24 log 10 u/mL
same,Bacterial Count,"E. coli NCTC 10418; maintained cephazolin 200 mg/L, 8 h",0.78 ± 0.87 log 10 u/mL
same,Bacterial Count,"E. coli NCTC 10418; maintained cephazolin 200 mg/L, 24 h",1.43 ± 0.74 log 10 u/mL
same,Bacterial Count,"E. coli NCTC 10418; maintained cephazolin 250 mg/L, 0 h",5.81 ± 0.03 log 10 u/mL
same,Bacterial Count,"E. coli NCTC 10418; maintained cephazolin 250 mg/L, 2 h",1.82 ± 0.44 log 10 u/mL
same,Bacterial Count,"E. coli NCTC 10418; maintained cephazolin 250 mg/L, 8 h",1.22 ± 0.96 log 10 u/mL
same,Bacterial Count,"E. coli NCTC 10418; maintained cephazolin 250 mg/L, 24 h",1.61 ± 0.86 log 10 u/mL
NC[C@H]1O[C@H](O[C@H]2[C@H](O)[C@@H](O[C@H]3O[C@H](CO)[C@@H](O)[C@H](N)[C@H]3O)[C@H](N)C[C@@H]2N)[C@H](N)C[C@@H]1O [tobramycin],MIC,[3],1 µg/mL
same,MIC,[4],2 to 4 µg/mL
same,Maintained level required,[5]; combined with 18 mg/l peak,1 mg/L
same,Peak concentration required,[5]; combined with maintained level,18 mg/L
same,Outcome of tobramycin profile,[6],complete kill
Cc1onc(-c2c(F)cccc2Cl)c1C(=O)N[C@@H]1C(=O)N2[C@@H]1SC(C)(C)[C@@H]2C(=O)O [flucloxacillin],Outcome of exposure,[2],complete kill or eradication was not achieved
COc1cccc(OC)c1C(=O)N[C@@H]1C(=O)N2[C@@H]1SC(C)(C)[C@@H]2C(=O)O [methicillin],MBC,"[1]; Staphylococcus aureus, read-out: MBC",> 32 µg/mL
same,MIC,"[1]; Staphylococcus aureus, read-out: MIC",32 µg/mL
